Results from ChEMBL document CHEMBL5143655, “Synthesis and biological evaluation of 1,2,4-triazole derivatives as potential Nrf2 activators for the treatment of cerebral ischemic injury” (Eur J Med Chem, 2022).
Active and inactive are the calls of the source. No cut-off for these calls is given here.

Key:
[1] = Half life in Sprague-Dawley rat at 5 mg/kg, ip measured upto 24 hrs by LC-MS/MS analysis; assay type: ADME, organism-based; details: in vivo
PC-12 [2] = assay: Neuroprotective activity against SNP induced rat PC-12 cells assessed as increase in cell viability at 1 uM preincubated for 2 hrs followed by SNP stimulation for 24 hrs by MTT assay relative to control; assay type: functional
PC-12 [3] = assay: Neuroprotective activity against SNP induced rat PC-12 cells assessed as increase in cell viability at 5 uM preincubated for 2 hrs followed by SNP stimulation for 24 hrs by MTT assay relative to control; assay type: functional
[4] = Metabolic stability in human plasma assessed as parent compound remaining at 200 uM measured after 60 min by LC-MS/MS analysis relative to control; assay type: ADME, cell-free; details: read-out: Stability
[5] = Acute toxicity in ip dosed BALB/c mouse assessed as lethal dose measured after 7 days; assay type: organism-based; details: in vivo, time 7 day
[6] = molecular target: T1, Nuclear factor erythroid 2-related factor 2 (Rattus norvegicus) (UniProt O54968); assay: Activation of Nrf2 pathway in rat PC-12 cells assessed as increase in GCLC level at 2.5 to 10 uM measured after 3 hrs by Western blot analysis; assay type: cell-based; details: filed as activator, dose 2.5-10 µM
T1 sequence (whole entry): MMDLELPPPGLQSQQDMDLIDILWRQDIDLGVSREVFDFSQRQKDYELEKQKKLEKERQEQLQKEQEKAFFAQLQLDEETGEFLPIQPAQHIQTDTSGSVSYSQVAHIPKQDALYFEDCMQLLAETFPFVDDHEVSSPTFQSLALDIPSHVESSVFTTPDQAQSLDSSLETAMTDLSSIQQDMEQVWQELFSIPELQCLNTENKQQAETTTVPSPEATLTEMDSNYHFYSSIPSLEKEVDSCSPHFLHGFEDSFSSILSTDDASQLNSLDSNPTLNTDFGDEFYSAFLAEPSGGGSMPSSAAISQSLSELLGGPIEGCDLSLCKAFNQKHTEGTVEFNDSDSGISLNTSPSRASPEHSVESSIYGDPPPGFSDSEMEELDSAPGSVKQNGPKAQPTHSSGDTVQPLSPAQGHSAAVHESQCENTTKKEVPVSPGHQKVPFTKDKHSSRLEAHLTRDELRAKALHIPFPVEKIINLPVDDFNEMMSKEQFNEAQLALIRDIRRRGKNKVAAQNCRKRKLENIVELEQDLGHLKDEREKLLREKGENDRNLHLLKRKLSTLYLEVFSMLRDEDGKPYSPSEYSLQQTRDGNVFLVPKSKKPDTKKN

[7] = molecular target: T1, Nuclear factor erythroid 2-related factor 2 (Rattus norvegicus); assay: Activation of Nrf2 pathway in rat PC-12 cells assessed as Nrf2 accumulation in nucleus measured after 3 hrs by Western blot analysis; assay type: cell-based; details: filed as activator, dose 2.5-10 µM, DDE = dose-dependent effect
Rattus norvegicus [8] = assay: Neuroprotective activity in Sprague-Dawley rat model of middle cerebral artery occlusion-induced ischemia reperfusion injury assessed as increase in serum SOD level at 3 to 30 mg/kg, ip preincubated for 1 hrs followed by MCAO operation and further incubated with compound for 4 hrs after reperfusion; assay type: functional, organism-based; details: dose 3-30 mg/kg, time 5.0 hrs
PC-12 [9] = assay: Neuroprotective activity against SNP-induced apoptotic rat PC-12 cells assessed as restoration of cell morphology at 10 uM preincubated for 2 hrs followed by SNP stimulation for 24 hrs by Hoechst 33258 staining based fluorescence microscopic analysis; assay type: functional
Rattus norvegicus [10] = assay: Neuroprotective activity in Sprague-Dawley rat model of middle cerebral artery occlusion-induced ischemia-reperfusion injury assessed as attenuation of behavioral deficit at 30 mg/kg, ip preincubated for 1 hrs followed by MCAO operation and further incubated with compound for 4 hrs after reperfusion; assay type: functional; details: time 5 hrs
[11] = Plasma protein binding in Sprague-Dawley rat plasma at 10 uM incubated for 6 hrs by LC-MS/MS based equilibrium dialysis method; assay type: ADME, cell-free; details: read-out: PPB (converted)
[12] = Metabolic stability in human plasma assessed as parent compound remaining at 200 uM measured after 90 min by LC-MS/MS analysis relative to control; assay type: ADME, cell-free; details: read-out: Stability
[13] = molecular target: T1, Nuclear factor erythroid 2-related factor 2 (Rattus norvegicus); assay: Activation of Nrf2 pathway in rat PC-12 cells assessed as reversal of ML385 induced inhibition of Nrf2 protein expression at 10 uM measured after 3 hrs in the presence of Nrf2 signalling inhibitor ML385 by Western blot analysis; assay type: cell-based; details: filed as activator
[14] = Tmax in Sprague-Dawley rat at 5 mg/kg, iv measured upto 24 hrs by LC-MS/MS analysis; assay type: ADME, organism-based; details: in vivo
[15] = Tmax in Sprague-Dawley rat at 5 mg/kg, ip measured upto 24 hrs by LC-MS/MS analysis; assay type: ADME, organism-based; details: in vivo
[16] = Clearence in Sprague-Dawley rat at 5 mg/kg, ip measured upto 24 hrs by LC-MS/MS analysis; assay type: ADME, organism-based; details: in vivo
[17] = molecular target: T1, Nuclear factor erythroid 2-related factor 2 (Rattus norvegicus); assay: Activation of Nrf2 pathway in rat PC-12 cells assessed as decrease in Nrf2 accumulation in cytoplasm at 0.5 to 10 uM measured after 3 hrs by Western blot analysis; assay type: cell-based; details: filed as activator, dose 0.5-10 µM
[18] = AUC (0 to infinity) in Sprague-Dawley rat at 5 mg/kg, ip measured upto 24 hrs by LC-MS/MS analysis; assay type: ADME, organism-based; parameters: time < 24 hrs, dose 5 mg/kg, route ip; details: in vivo
Rattus norvegicus [19] = assay: Neuroprotective activity in Sprague-Dawley rat model of middle cerebral artery occlusion-induced ischemia reperfusion injury assessed as decrease in serum MDA level at 3 to 30 mg/kg, ip preincubated for 1 hrs followed by MCAO operation and further incubated with compound for 4 hrs after reperfusion; assay type: functional, organism-based; details: dose 3-30 mg/kg, time 5.0 hrs
[20] = Acute toxicity in BALB/c mouse assessed as survival rate at 550 mg/kg, ip measured after 7 days; assay type: organism-based; details: in vivo, 168 h, time 7 day
Rattus norvegicus [21] = assay: (§1) Neuroprotective activity in Sprague-Dawley rat model of middle cerebral artery occlusion-induced ischemia-reperfusion injury assessed as decrease in neurological score at 3 mg/kg, ip preincubated for 1 hrs followed by MCAO operation and further incubated with compound for 4 hrs after reperfusion; assay type: functional; details: time 5 hrs
[22] = Cytotoxicity against rat PC-12 cells assessed as reduction in cell viability by MTT assay; assay type: toxicity, cell-based
[23] = molecular target: Voltage-gated inwardly rectifying potassium channel KCNH2 (Homo sapiens, UniProt Q12809); assay: Inhibition of hERG channel expressed in HEK293 cells at -80 mV holding potential by automated patch clamp method; assay type: toxicity, cell-based
[24] = Cytotoxicity against human HaCaT cells assessed as reduction in cell viability by MTT assay; assay type: toxicity, cell-based
[25] = Plasma protein binding in human plasma at 10 uM incubated for 6 hrs by LC-MS/MS based equilibrium dialysis method; assay type: ADME, cell-free; details: read-out: PPB (converted)
[26] = Half life in Sprague-Dawley rat at 5 mg/kg, iv measured upto 24 hrs by LC-MS/MS analysis; assay type: ADME, organism-based; details: in vivo
[27] = Bioavailability in Sprague-Dawley rat at 5 mg/kg, ip measured upto 24 hrs by LC-MS/MS analysis; assay type: ADME, organism-based; details: in vivo
Rattus norvegicus [28] = assay: as §1, with “decrease in cerebral infarct volume at 3” for “decrease in neurological score at 3”, “after reperfusion by TTC staining based assay” for “after reperfusion”; assay type: functional; parameters: scale not given: the % may be the effect or the level left; details: time 5 hrs
[29] = molecular target: T1, Nuclear factor erythroid 2-related factor 2 (Rattus norvegicus); assay: Activation of Nrf2 pathway in rat PC-12 cells assessed as increase in NQO1 level at 2.5 to 10 uM measured after 3 hrs by Western blot analysis; assay type: cell-based; details: filed as activator, dose 2.5-10 µM
[30] = Cmax in Sprague-Dawley rat at 5 mg/kg, ip measured at 2 hrs by LC-MS/MS analysis; assay type: ADME, organism-based; parameters: dose 5 mg/kg, time 2 hrs, route ip; details: in vivo

Voltage-gated inwardly rectifying potassium channel KCNH2, sequence (Q12809 whole entry): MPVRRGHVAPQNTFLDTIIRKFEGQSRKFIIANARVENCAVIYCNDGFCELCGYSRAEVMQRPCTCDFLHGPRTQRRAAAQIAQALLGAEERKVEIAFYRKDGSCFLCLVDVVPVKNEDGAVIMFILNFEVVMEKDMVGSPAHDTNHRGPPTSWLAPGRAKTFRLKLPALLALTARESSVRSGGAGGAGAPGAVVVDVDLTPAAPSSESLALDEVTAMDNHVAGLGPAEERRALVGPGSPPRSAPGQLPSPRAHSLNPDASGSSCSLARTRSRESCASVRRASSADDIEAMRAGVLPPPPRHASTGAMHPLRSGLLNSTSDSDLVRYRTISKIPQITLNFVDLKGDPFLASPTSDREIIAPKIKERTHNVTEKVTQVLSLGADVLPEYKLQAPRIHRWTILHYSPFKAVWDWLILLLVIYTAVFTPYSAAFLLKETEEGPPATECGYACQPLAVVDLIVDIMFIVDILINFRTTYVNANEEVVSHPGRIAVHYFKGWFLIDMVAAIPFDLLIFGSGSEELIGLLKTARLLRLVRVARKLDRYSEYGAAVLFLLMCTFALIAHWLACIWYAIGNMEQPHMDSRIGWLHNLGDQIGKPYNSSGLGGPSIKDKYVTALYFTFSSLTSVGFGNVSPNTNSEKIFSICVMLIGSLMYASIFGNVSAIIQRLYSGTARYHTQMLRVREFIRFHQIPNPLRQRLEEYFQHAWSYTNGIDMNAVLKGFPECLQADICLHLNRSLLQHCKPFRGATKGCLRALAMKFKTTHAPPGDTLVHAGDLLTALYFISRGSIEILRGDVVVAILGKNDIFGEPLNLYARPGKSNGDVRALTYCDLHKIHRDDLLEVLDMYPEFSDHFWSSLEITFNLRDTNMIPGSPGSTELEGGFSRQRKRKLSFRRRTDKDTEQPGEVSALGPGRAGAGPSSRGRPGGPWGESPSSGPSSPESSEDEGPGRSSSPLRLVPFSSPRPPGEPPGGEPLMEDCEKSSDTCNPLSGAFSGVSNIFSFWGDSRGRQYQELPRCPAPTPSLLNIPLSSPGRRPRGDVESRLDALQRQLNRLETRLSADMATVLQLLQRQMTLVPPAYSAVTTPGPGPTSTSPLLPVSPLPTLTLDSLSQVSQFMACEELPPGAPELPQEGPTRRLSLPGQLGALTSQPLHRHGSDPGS

Cc1cc(C)cc(-n2nc(-c3ccc(C(F)(F)F)cc3O)nc2-c2ccccc2O)c1
half-life [1]: 12.8 h
Activity (PC-12 [2]): 76.86%
Activity (PC-12 [3]): 101.59%
remaining at 1 h, 200 µM [4]: 90.7%
LD50 at 168 h [5]: 789 mg/kg
Activity [6]: Active
Activity [7]: Dde
Activity (Rattus norvegicus [8]): Active
Activity (PC-12 [9]): Active
Activity (Rattus norvegicus [10]): 1.5
fraction unbound at 6 h, 10 µM [11]: 0.0008
remaining at 1.5 h, 200 µM [12]: 89.5%
Activity [13]: Active
Tmax [14]: 4.8 min
Tmax [15]: 2 h
CL [16]: 0.0017 (mg/kg)/(ng/ml)/hr
Activity [17]: Active
AUC(0-inf) [18]: 2930 ng·h/mL
Activity (Rattus norvegicus [19]): Active
Activity [20]: Non-Toxic
Activity (Rattus norvegicus [21]): 1.87
IC50 [22]: 263 µM
IC50 [23]: > 30 µM
IC50 [24]: 127 µM
fraction unbound at 6 h, 10 µM [25]: 0.0006
half-life [26]: 8.26 h
bioavailability [27]: 28.8%
Activity (Rattus norvegicus [28]): 16.37%
Activity [29]: Active
Cmax [30]: 323 ng/mL
